We go through 23 molecules from patent US10047096B2, “Substituted pyridobenzodiazepinone-derivatives and use thereof” (Bayer Pharma Aktiengesellschaft, priority 2014, dated 2018).

The structures appear in SMILES notation. Counter-ions that a name gives are not always drawn.

The first experiment deals with human PDGFRβ (Homo sapiens (Human), UniProt P09619). The experiment in a line: PDGFRβ kinase assay (PDGFRβ-HTRF).
Chain of human PDGFRβ (P09619 561-1106): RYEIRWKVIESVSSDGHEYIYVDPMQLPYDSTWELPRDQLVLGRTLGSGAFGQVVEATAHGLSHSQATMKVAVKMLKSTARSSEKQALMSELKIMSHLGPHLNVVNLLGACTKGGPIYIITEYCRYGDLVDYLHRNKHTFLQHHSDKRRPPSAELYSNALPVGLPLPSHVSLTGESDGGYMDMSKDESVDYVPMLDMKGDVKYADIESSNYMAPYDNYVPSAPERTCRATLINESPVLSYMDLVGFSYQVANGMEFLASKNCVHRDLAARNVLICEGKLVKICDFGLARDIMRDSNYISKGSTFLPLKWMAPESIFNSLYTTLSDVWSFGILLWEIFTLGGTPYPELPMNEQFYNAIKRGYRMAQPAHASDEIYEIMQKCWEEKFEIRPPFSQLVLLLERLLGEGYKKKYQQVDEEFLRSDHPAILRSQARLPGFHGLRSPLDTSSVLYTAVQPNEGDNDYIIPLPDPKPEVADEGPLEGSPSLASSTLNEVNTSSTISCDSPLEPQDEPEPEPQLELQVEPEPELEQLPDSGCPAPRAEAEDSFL
Settings: not given
The format is biochemical. The protocol: The PDGFRβ-inhibitory activity of the inventive compounds was determined in the PDGFRβ-HTRF assay described hereinafter.
The kinase used was a recombinant fusion protein composed of N-terminal GST and a C-terminal fragment of human PDGFRβ (amino acids R561-L1106), expressed in baculovirus-infected insect cells (Sf9) and purified by affinity chromatography (from ProQinase GmbH, Freiburg, Germany). The substrate used for the kinase reaction was biotinylated poly-Glu,Tyr (4:1) copolymer (from Cisbio Bioassays, Codolet, France).
For the assay, 50 nl of a 100-fold concentrated solution of the test substance in DMSO was pipetted into a black “low-volume 384 well” microtitre plate (from Greiner Bio-One, Frickenhausen, Germany), then 2 μl of a solution of PDGFRβ in assay buffer [50 mM HEPES/NaOH pH 7.5, 10 mM MgCl2, 2.5 mM dithiothreitol, 0.01% (v/v) Triton-X100 (from Sigma)] was added and the mixture was incubated for 15 min, in order to enable preliminary binding of the substance to the enzyme before the kinase reaction. […] The resulting mixture was incubated at 22° C. for 1 h to allow formation of a complex of the biotinylated phosphorylated substrate and the detection reagents.
Subsequently, the amount of the phosphorylated substrate was evaluated by measuring the resonance energy transfer from the PT66-Eu chelate to the streptavidin-XL665. […] The IC50 values were calculated by a 4-parameter fit.
As usually defined, the IC50 is the concentration that gives 50% inhibition. With `Cc1ccc(O)cc1Nc1ccnc2c1C(=O)Nc1cc(CN3CCOCC3)ccc1N2` [Example 41, 4-[(5-Hydroxy-2-methylphenyl)amino]-8-(morpholin-4-ylmethyl)-6,11-dihydro-5H-pyrido[2,3-b][1,5]benzodiazepin-5-one formic acid salt], the IC50 was determined as 3.72 nM.

Still in this experiment, the particulars now being: 10 μM ATP; some mean values from multiple determinations.
`Cc1cc(F)c(Nc2ccnc3c2C(=O)Nc2cc(CNCCO)ccc2N3)cc1O` [Example 167, 4-[(2-Fluoro-5-hydroxy-4-methylphenyl)amino]-8-{[(2-hydroxyethyl)amino]methyl}-6,11-dihydro-5H-pyrido[2,3-b][1,5]benzodiazepin-5-one]: the IC50 is 1.31 nM.

`N#Cc1ccc2c(c1)NC(=O)c1c(Nc3cc(O)c(Br)cc3F)ccnc1N2` [Example 7, 4-[(4-Bromo-2-fluoro-5-hydroxyphenyl)amino]-5-oxo-6,11-dihydro-5H-pyrido[2,3-b][1,5]benzodiazepine-8-carbonitrile] displayed an IC50 of 9.47 nM. In the case of `Cc1ccc(O)cc1Nc1ccnc2c1C(=O)Nc1cc(CNC3CCOCC3)ccc1N2` [Example 136], the half-inhibitory concentration (IC50) is 2.05 nM. `Cc1cc(F)c(Nc2ccnc3c2C(=O)Nc2cc(C(=O)N4CCC(O)CC4)ccc2N3)cc1O` [Example 178, 4-[(2-Fluoro-5-hydroxy-4-methylphenyl)amino]-8-[(4-hydroxypiperidin-1-yl)carbonyl]-6,11-dihydro-5H-pyrido[2,3-b][1,5]benzodiazepin-5-one] came in with an IC50 of 14.8 nM.

In turn, `Cc1cc(F)c(Nc2ccnc3c2C(=O)Nc2cc(CN4CCN5C(=O)C(C)NC(=O)C5C4)ccc2N3)cc1O` (racemic) [Example 194, rac-8-({4-[(2-Fluoro-5-hydroxy-4-methylphenyl)amino]-5-oxo-6,11-dihydro-5H-pyrido[2,3-b][1,5]benzodiazepin-8-yl}methyl)-3-methyltetrahydro-2H-pyrazino[1,2-a]pyrazine-1,4(3H,6H)-dione] displayed an IC50 of 1.92 nM.

In turn, `Cc1cc(F)c(Nc2ccnc3c2C(=O)Nc2cc(CN4CCC[C@@H](N)C4)ccc2N3)cc1O` [Example 212, 8-{[(3R)-3-Aminopiperidin-1-yl]methyl}-4-[(2-fluoro-5-hydroxy-4-methylphenyl)amino]-6,11-dihydro-5H-pyrido[2,3-b][1,5]benzodiazepin-5-one] showed an IC50 of 0.829 nM. `Cc1ccc(O)cc1Nc1ccnc2c1C(=O)Nc1cc(CN3CCCC3)ccc1N2` [Example 40, 4-[(5-Hydroxy-2-methylphenyl)amino]-8-(pyrrolidin-1-ylmethyl)-6,11-dihydro-5H-pyrido[2,3-b][1,5]benzodiazepin-5-one] registered an IC50 of 1.8 nM. As to `Cc1cc(F)c(Nc2ccnc3c2C(=O)Nc2cc(CNC4CC(OC(C)C)C4)ccc2N3)cc1O` (centres unmarked) [Example 190, 4-[(2-Fluoro-5-hydroxy-4-methylphenyl)amino]-8-{[(3-isopropoxycyclobutyl)amino]methyl}-6,11-dihydro-5H-pyrido[2,3-b][1,5]benzodiazepin-5-one], the IC50 turned out to be 1.22 nM. Molecule `Cc1cc(F)c(Nc2ccnc3c2C(=O)Nc2cc(CN4CCC(CO)C4)ccc2N3)cc1O` (racemic) [Example 177, rac-4-[(2-Fluoro-5-hydroxy-4-methylphenyl)amino]-8-{[3-(hydroxymethyl)pyrrolidin-1-yl]methyl}-6,11-dihydro-5H-pyrido[2,3-b][1,5]benzodiazepin-5-one] gave an IC50 of 1.71 nM. Molecule `N#Cc1ccc2c(c1)NC(=O)c1c(Nc3cc(O)ccc3F)ccnc1N2` [Example 13, 4-[(2-Fluoro-5-hydroxyphenyl)amino]-5-oxo-6,11-dihydro-5H-pyrido[2,3-b][1,5]benzodiazepine-8-carbonitrile] gave an IC50 of 21.9 nM. Molecule `Cc1cc(F)c(Nc2ccnc3c2C(=O)Nc2cc(CN4CC5CC5C4CO)ccc2N3)cc1O` (stereo not drawn) [Example 164, 4-[(2-Fluoro-5-hydroxy-4-methylphenyl)amino]-8-{[cis-2-(hydroxymethyl)-3-azabicyclo[3.1.0]hex-3-yl]methyl}-6,11-dihydro-5H-pyrido[2,3-b][1,5]benzodiazepin-5-one] came in with an IC50 of 3.71 nM. Against the preceding molecule, the IC50 is about 5.9-fold lower. As to `Cc1cc(F)c(Nc2ccnc3c2C(=O)Nc2cc(CN[C@@H](CO)C(N)=O)ccc2N3)cc1O` [Example 173, N^2-({4-[(2-Fluoro-5-hydroxy-4-methylphenyl)amino]-5-oxo-6,11-dihydro-5H-pyrido[2,3-b][1,5]benzodiazepin-8-yl}methyl)-L-serinamide], the IC50 amounted to 4.41 nM. The IC50 values of the last two molecules are within 1.5-fold of each other.

With `Cc1cc(F)c(Nc2ccnc3c2C(=O)Nc2cc(CN4CC[C@H](N(C)C)C4)ccc2N3)cc1O` [Example 220, 8-{[(3S)-3-(Dimethylamino)pyrrolidin-1-yl]methyl}-4-[(2-fluoro-5-hydroxy-4-methylphenyl)amino]-6,11-dihydro-5H-pyrido[2,3-b][1,5]benzodiazepin-5-one], inhibition was half-maximal at 2.15 nM (IC50). `CCOC(=O)[C@H]1C[C@H](NCc2ccc3c(c2)NC(=O)c2c(Nc4cc(O)c(C)cc4F)ccnc2N3)C1` [Example 192, trans-Ethyl 3-[({4-[(2-fluoro-5-hydroxy-4-methylphenyl)amino]-5-oxo-6,11-dihydro-5H-pyrido[2,3-b][1,5]benzodiazepin-8-yl}methyl)amino]cyclobutanecarboxylate] returned an IC50 of 1.61 nM. Regarding `N#Cc1ccc2c(c1)NC(=O)c1c(Nc3cc(O)c(F)cc3F)ccnc1N2` [Example 38, 4-[(2,4-Difluoro-5-hydroxyphenyl)amino]-5-oxo-6,11-dihydro-5H-pyrido[2,3-b][1,5]benzodiazepine-8-carbonitrile], the IC50 was found to be 7.03 nM. Still for that read-out and setting: the figure for `Cc1ccc(O)cc1Nc1ccnc2c1C(=O)Nc1cc(CNCCN3CCOCC3)ccc1N2` [Example 18, 4-[(5-Hydroxy-2-methylphenyl)amino]-8-({[2-(morpholin-4-yl)ethyl]amino}methyl)-6,11-dihydro-5H-pyrido[2,3-b][1,5]benzodiazepin-5-one] is 5.19 nM; for `Cc1cc(F)c(Nc2ccnc3c2C(=O)Nc2cc(C(=O)N4C[C@H](O)C[C@H]4CO)ccc2N3)cc1O` [Example 160, 4-[(2-Fluoro-5-hydroxy-4-methylphenyl)amino]-8-{[(2S,4R)-4-hydroxy-2-(hydroxymethyl)pyrrolidin-1-yl]carbonyl}-6,11-dihydro-5H-pyrido[2,3-b][1,5]benzodiazepin-5-one] it is 7.25 nM; for `CCN(CCCO)Cc1ccc2c(c1)NC(=O)c1c(Nc3cc(O)c(C)cc3F)ccnc1N2` [Example 222, 8-{[Ethyl(3-hydroxypropyl)amino]methyl}-4-[(2-fluoro-5-hydroxy-4-methylphenyl)amino]-6,11-dihydro-5H-pyrido[2,3-b][1,5]benzodiazepin-5-one] it is 1.01 nM. Molecule `Cc1ccc(O)cc1Nc1ccnc2c1C(=O)Nc1cc(CNC3CCCCC3C)ccc1N2` (centres unmarked) [Example 124] had an IC50 of 3.02 nM. Molecule `CCn1ccc(CNCc2ccc3c(c2)NC(=O)c2c(Nc4cc(O)ccc4C)ccnc2N3)n1` [Example 103] showed an IC50 of 3.46 nM.

The molecule `Cc1ccc(O)cc1Nc1ccnc2c1C(=O)Nc1cc(CNCc3cccc(F)c3F)ccc1N2` [Example 94] showed an IC50 of 3.52 nM. Molecule `N#Cc1ccc2c(c1)NC(=O)c1c(Nc3ccc(O)c(O)c3)ccnc1N2` [Example 12, 4-[(3,4-Dihydroxyphenyl)amino]-5-oxo-6,11-dihydro-5H-pyrido[2,3-b][1,5]benzodiazepine-8-carbonitrile] came in with an IC50 of 84.4 nM.
